What all share (assay type): biochemical
One assay concerns the target T1, VEGF-R2 (Rattus norvegicus, UniProt O08775).
T1 construct: polyhistidine (N)
Nature of the assay: VEGF-R2 Screening Assay.

The target in the next assay is T2, HER-2 (Homo sapiens, UniProt P04626).
T2 construct: the nucleotides encoding amino acids 679 to 1255 of HER-2; purchased Proqinase (Freiburg, Germany)
Nature of the assay: HER-2 Kinase Assay. The essentials:
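GST-HIS6-thrombin fusion of HER-2 residues 679–1255, assayed with biotinylated polyGluTyr, 1 μM ATP plus γ-33P-ATP, Mg2+, Mn2+ and vanadate in Hepes pH 7.5 for 1 h at 30 °C. Incorporation read by streptavidin Flashplate scintillation counting; IC50 values, or % inhibition at 1 μM.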

The target in another assay is T3, EGFR (Homo sapiens, UniProt P00533).
T3 construct: The intracellular portion of EGFR started at nucleotide 2189 (corresponding to amino acid 667) and ended at the termination codon; made in house; host or cells: Sf9 insect cells (baculovirus)
T3 sequence (P00533 669-1210 limits assumed): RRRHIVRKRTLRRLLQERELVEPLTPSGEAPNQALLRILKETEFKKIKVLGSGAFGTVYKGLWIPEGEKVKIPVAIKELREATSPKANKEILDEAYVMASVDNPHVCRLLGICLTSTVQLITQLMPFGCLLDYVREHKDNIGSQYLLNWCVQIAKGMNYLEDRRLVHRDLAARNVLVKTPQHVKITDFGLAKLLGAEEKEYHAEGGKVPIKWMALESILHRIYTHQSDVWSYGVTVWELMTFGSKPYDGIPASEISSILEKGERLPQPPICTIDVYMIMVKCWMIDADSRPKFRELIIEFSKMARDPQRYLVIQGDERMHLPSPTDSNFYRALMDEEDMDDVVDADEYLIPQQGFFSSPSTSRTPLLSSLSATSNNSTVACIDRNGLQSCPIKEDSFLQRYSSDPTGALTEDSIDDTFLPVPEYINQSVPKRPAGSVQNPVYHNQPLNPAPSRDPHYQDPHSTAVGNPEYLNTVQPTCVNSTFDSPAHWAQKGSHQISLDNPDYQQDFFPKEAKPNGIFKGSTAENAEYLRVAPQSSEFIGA
Nature of the assay: EGFR Kinase Assay. The following applies: test concentration of 2 μM; read-out: EGFR percent inhibition. Summed up:
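GST-fused EGFR intracellular domain (aa 667 to end), Sf9-expressed, phosphorylating biotinylated polyGluTyr with 5 μM ATP plus γ-33P ATP in Tris pH 8.0, MgCl2, vanadate, 1 mM DTT; 1 h, 30 °C, streptavidin Flashplate scintillation read. Triplicate 16-point half-log series from 200 uM; IC50 from % inhibition vs log concentration, else % inhibition at 2 μM.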

Molecules are shown by their SMILES.

T2 sequence (P04626 679-1255): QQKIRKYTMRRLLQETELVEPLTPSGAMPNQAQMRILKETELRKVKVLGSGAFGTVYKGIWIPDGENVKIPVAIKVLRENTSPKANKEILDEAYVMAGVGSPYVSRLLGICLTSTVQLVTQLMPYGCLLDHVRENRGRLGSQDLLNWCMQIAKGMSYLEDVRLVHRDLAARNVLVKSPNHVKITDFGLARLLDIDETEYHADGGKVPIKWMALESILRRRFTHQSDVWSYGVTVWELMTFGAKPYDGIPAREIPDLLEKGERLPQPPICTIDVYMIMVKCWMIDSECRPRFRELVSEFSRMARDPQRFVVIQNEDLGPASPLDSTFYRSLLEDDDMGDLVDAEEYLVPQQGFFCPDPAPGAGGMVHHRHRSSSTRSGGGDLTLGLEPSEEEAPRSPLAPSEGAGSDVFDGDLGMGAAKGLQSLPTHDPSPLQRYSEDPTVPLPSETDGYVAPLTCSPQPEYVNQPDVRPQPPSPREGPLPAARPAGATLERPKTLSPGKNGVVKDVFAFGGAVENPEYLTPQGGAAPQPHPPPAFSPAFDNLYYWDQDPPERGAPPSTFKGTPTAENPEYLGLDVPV
T1 sequence (O08775 786-1343): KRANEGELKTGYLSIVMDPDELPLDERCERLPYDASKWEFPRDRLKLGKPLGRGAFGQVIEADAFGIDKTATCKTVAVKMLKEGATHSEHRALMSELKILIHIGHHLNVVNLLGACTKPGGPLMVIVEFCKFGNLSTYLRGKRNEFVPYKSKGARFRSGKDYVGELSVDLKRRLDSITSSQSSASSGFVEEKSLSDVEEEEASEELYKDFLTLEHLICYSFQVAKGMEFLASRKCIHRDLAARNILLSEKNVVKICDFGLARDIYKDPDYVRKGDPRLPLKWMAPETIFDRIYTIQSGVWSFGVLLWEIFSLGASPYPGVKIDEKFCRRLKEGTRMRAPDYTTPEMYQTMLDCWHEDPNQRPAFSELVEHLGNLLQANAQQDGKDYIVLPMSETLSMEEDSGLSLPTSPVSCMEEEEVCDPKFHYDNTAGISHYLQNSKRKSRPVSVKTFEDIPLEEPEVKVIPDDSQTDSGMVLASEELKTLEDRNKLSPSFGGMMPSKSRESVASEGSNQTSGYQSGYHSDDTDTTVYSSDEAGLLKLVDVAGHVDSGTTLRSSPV

For `CCOC(=O)c1sc2nc(O)c(C#N)c3c2c1NC(=O)N3c1ccncc1` [Cpd 14, 6-cyano-7-hydroxy-4-oxo-5-pyridin-4-yl-4,5-dihydro-3H-1-thia-3,5,8-triaza-acenaphthylene-2-carboxylic acid ethyl ester], the IC50 at VEGF-R2 and against HER-2 was over 100 µM throughout. Also, the inhibition at 2 µM at EGFR was -9%.
